Measurements as given in US9918985B2, “Compounds and their use as BACE inhibitors” (ASTRAZENECA AB, priority 2010, dated 2018).

Molecular target: human β-Secretase (soluble part, sBACE-Fc) (Homo sapiens (Human), UniProt P56817)
Assay: TR-FRET assay
Type: biochemical
Details: standard TR-FRET assay, 15 minutes reaction at r.t.
Protocol: The β-secretase enzyme used in the TR-FRET is prepared as follows:
The cDNA for the soluble part of the human β-Secretase (AA 1-AA 460) was cloned using the ASP2-Fc10-1-IRES-GFP-neoK mammalian expression vector. The gene was fused to the Fc domain of IgG1 (affinity tag) and stably cloned into HEK 293 cells.
The robotic systems Biomek FX and Velocity 11 were used for all liquid handling and the enzyme and substrate solutions were kept on ice until they were placed in the robotic system. Enzyme (9 μl) was added to the plate then 1 μl of compound in dimethylsulphoxide was added, mixed and pre-incubated for 10 minutes. Substrate (10 μl) was then added, mixed and the reaction proceeded for 15 minutes at r.t. The reaction was stopped with the addition of Stop solution (7 μl, NaAcetate, pH 9). […] The dimethylsulphoxide control, instead of test compound, defined the 100% activity level and 0% activity was defined by wells lacking enzyme (replaced with reaction buffer).

Chain of human β-Secretase (soluble part, sBACE-Fc) (P56817 22-460): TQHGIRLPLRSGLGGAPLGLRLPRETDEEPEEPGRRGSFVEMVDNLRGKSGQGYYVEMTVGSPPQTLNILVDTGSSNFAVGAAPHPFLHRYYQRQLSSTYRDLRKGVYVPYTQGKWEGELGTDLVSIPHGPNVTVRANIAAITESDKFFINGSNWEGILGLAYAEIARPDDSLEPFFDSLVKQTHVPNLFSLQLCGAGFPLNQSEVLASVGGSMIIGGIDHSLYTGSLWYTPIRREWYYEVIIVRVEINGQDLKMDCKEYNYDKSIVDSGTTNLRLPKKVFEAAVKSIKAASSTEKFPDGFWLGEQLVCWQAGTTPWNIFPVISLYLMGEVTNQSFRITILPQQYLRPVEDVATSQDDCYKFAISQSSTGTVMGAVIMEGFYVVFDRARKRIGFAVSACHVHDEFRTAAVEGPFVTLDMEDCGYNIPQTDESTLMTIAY

IC50 [nM] | SMILES
34 | CO[C@H]1CC[C@]2(CC1)Cc1ccc(-c3ccc(F)cc3F)cc1[C@@]21N=C(C)C(N)=N1 [Example 103, (1r,1′R,4R)-6′-(2,4-Difluorophenyl)-4-methoxy-5″-methyl-3′H-dispiro[cyclohexane-1,2′-indene-1′,2″-imidazol]-4″-amine]
842 | CCO[C@H]1CC[C@]2(CC1)Cc1ccc(Br)cc1C21N=C(C)C(N)=N1 (stereo partly drawn) [Example 130, (1r,4r)-6′-Bromo-4-ethoxy-5″-methyl-3′H-dispiro[cyclohexane-1,2′-indene-1′,2″-imidazol]-4″-amine]

Tested on: sAPPβ release in SH-SY5Y cells
Assay: sAPPβ release assay
Type: cell-based
Details: 17 h incubation
Protocol: Thaw cells and seed at a conc. of around 10000 cells/well in DMEM/F-12 with Glutamax, 10% FCS and 1% non-essential amino acids to a 384-well tissue culture treated plate, 100 μL cell susp/well. […] The cell medium was removed, followed by addition of 30 μL compound diluted in DMEM/F-12 with Glutamax, 10% FCS, 1% non-essential amino acids and 1% PeSt to a final conc. of 1% DMSO. The compounds were incubated with the cells for 17 h (overnight) at 37° C., 5% CO2. Meso Scale Discovery (MSD) plates were used for the detection of sAPPIβ release. MSD sAPPIβ plates were blocked in 1% BSA in Tris wash buffer (40 μL/well) for 1 h on shake at r.t. and washed 1 time in Tris wash buffer (40 μL/well). 20 μL of medium was transferred to the pre-blocked and washed MSD sAPPIβ microplates, and the cell plates were further used in an ATP assay to measure cytotoxicity. The MSD plates were incubated with shaking at r.t. for 2 h and the media discarded. 10 μL detection antibody was added (1 nM) per well followed by incubation with shaking at r.t. for 2 h and then discarded. 40 μL Read Buffer was added per well and the plates were read in a SECTOR Imager.

SMILES | IC50 [nM]
CCC1=NC2(N=C1N)c1cc(-c3cccc(C#N)c3)ccc1C[C@]21CC[C@@H](OC)CC1 (single isomer, unassigned; isomer 1) [Example 71 Isomer 1, 3-[(1r,4r)-4″-amino-5″-ethyl-4-methoxy-3′H-dispiro-[cyclohexane-1,2′-indene-1′,2″-imidazol]-6′-yl]benzonitrile] | 5.2
CC#Cc1cncc(-c2ccc3c(c2)C2(N=C(N)C(CC)=N2)[C@]2(CC[C@H](OC)CC2)C3)c1 (single isomer, unassigned; isomer 1) [Example 68 Isomer 1, (1r,4r)-5″-ethyl-4-methoxy-6′-[5-(prop-1-yn-1-yl)pyridin-3-yl]-3′H-dispiro[cyclohexane-1,2′-indene-1′,2″-imidazol]-4″-amine] | 0.38
CCC1=NC2(N=C1N)c1cc(-c3cncc(Cl)c3)ccc1C[C@]21CC[C@@H](OC)CC1 (single isomer, unassigned; isomer 1) [Example 66 Isomer 1, (1r,4r)-6′-(5-chloropyridin-3-yl)-5″-ethyl-4-methoxy-3′H-dispiro[cyclohexane-1,2′-indene-1′,2″-imidazol]-4″-amine] | 1.6
CCC1=NC2(N=C1N)c1cc(-c3cccc(C#N)c3)ccc1C[C@]21CC[C@@H](OC)CC1 (single isomer, unassigned; isomer 2) [Example 71 Isomer 2, 3-[(1r,4r)-4″-amino-5″-ethyl-4-methoxy-3′H-dispiro-[cyclohexane-1,2′-indene-1′,2″-imidazol]-6′-yl]benzonitrile] | 763
